# From paper PMC5947510 (2015)
# System: pre-miR-27a (RNA, miRNA) GGGCUGAGGAGCAGGGCUUAGCUGCUUGUGAGCAGGGUCCACACCAAGUCGUGUUCACAGUGGCUAAGUUCCGCCCCCCAG
# Assay: fluorescence titration (bisbenzimidazole emission)
# Details: 10 mM NaCl, 1 mM MgCl2; 10 mM sodium cacodylate, pH 7.5, 25 °C; compound 500 nM
row,SMILES,Ka [M⁻¹]
1,CN1CCN(c2ccc3nc(-c4ccc5nc(-c6ccc(O)cc6)[nH]c5c4)[nH]c3c2)CC1,3.4e+06
2,CN1CCN(c2ccc3nc(-c4ccc5nc(-c6ccc(OCCCCCCCCCCOCc7cn(C[C@H]8O[C@@H](O[C@@H]9[C@@H](O)[C@H](N)C[C@H](N)[C@H]9O[C@H]9O[C@H](CN)[C@@H](O)[C@H](O)[C@H]9N)[C@H](O)[C@@H]8O[C@H]8O[C@@H](CN)[C@@H](O)[C@H](O)[C@H]8N)nn7)cc6)[nH]c5c4)[nH]c3c2)CC1,1.2e+07
3,CN1CCN(c2ccc3nc(-c4ccc5nc(-c6ccc(OCCCCCCCCCc7cn(C[C@H]8O[C@@H](O[C@@H]9[C@@H](O)[C@H](N)C[C@H](N)[C@H]9O[C@H]9O[C@H](CN)[C@@H](O)[C@H](O)[C@H]9N)[C@H](O)[C@@H]8O[C@H]8O[C@@H](CN)[C@@H](O)[C@H](O)[C@H]8N)nn7)cc6)[nH]c5c4)[nH]c3c2)CC1,3.2e+08
4,CN1CCN(c2ccc3nc(-c4ccc5nc(-c6ccc(OCCCCOCc7cn(C[C@H]8O[C@@H](O[C@@H]9[C@@H](O)[C@H](N)C[C@H](N)[C@H]9O[C@H]9O[C@H](CN)[C@@H](O)[C@H](O)[C@H]9N)[C@H](O)[C@@H]8O[C@H]8O[C@@H](CN)[C@@H](O)[C@H](O)[C@H]8N)nn7)cc6)[nH]c5c4)[nH]c3c2)CC1,7.4e+08

# Other lines, results leading:
row,Ka [M⁻¹],SMILES
1,2.5e+07,CN1CCN(c2ccc3nc(-c4ccc5nc(-c6ccc(OCCCCCCCCOCc7cn(C[C@H]8O[C@@H](O[C@@H]9[C@@H](O)[C@H](N)C[C@H](N)[C@H]9O[C@H]9O[C@H](CN)[C@@H](O)[C@H](O)[C@H]9N)[C@H](O)[C@@H]8O[C@H]8O[C@@H](CN)[C@@H](O)[C@H](O)[C@H]8N)nn7)cc6)[nH]c5c4)[nH]c3c2)CC1
2,1.2e+08,CN1CCN(c2ccc3nc(-c4ccc5nc(-c6ccc(OCCCCCCOCc7cn(C[C@H]8O[C@@H](O[C@@H]9[C@@H](O)[C@H](N)C[C@H](N)[C@H]9O[C@H]9O[C@H](CN)[C@@H](O)[C@H](O)[C@H]9N)[C@H](O)[C@@H]8O[C@H]8O[C@@H](CN)[C@@H](O)[C@H](O)[C@H]8N)nn7)cc6)[nH]c5c4)[nH]c3c2)CC1
